Data: patent publication US20240115654A1, “INTRAVENOUS ADMINISTRATION OF ENGINEERED ANTIMICROBIAL AMPHIPHILIC PEPTIDES” (priority 2021, published 2024)
Values joined by “and” are separate entries in the source; they are usually repeats but may differ in a detail not shown here. Equal values may be shown once. Read-outs that look alike come from different tables or passages of the source. Peptide text beside a SMILES is read from it.

Conditions: for increase of AUC0-t / increase of mean AUC0-24: Cohorts 1 to 3
[1] = Cohort 4, 0.5 mg/kg IV infusion 2 hours, Max
[2] = Cohort 4, 0.5 mg/kg IV infusion 2 hours, Mean
[3] = Cohort 4, 0.5 mg/kg IV infusion 2 hours, Min
[4] = Cohort 4, 0.5 mg/kg IV, infusion 2 hours, cohort Geometric Mean
[5] = Cohort 4, 0.5 mg/kg IV, infusion 2 hours, cohort Mean
[6] = Cohort 4, 0.5 mg/kg IV, infusion 2 hours, cohort Median
[7] = Cohort 5, 1 mg/kg IV infusion 4 hours, Max
[8] = Cohort 5, 1 mg/kg IV infusion 4 hours, Min
[9] = Phase 1 subjects, 1-hr IV infusion
[10] = over the 5-fold increase in dose
[11] = single 1-hour infusion 0.05 mg/kg, Geometric Mean
[12] = single 1-hour infusion 0.05 mg/kg, Max
[13] = single 1-hour infusion 0.05 mg/kg, Mean
[14] = single 1-hour infusion 0.05 mg/kg, Median
[15] = single 1-hour infusion 0.05 mg/kg, Min
[16] = single 1-hour infusion 0.05 mg/kg, individual subjects
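Also: phase 1 study in human subjects given one IV dose of the peptide, enrolled in sequential ascending-dose cohorts and randomized to peptide or placebo.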

Q: For CC(C)[C@H](NC(=O)[C@H](Cc1c[nH]c2ccccc12)NC(=O)[C@H](CCCNC(=N)N)NC(=O)[C@H](CCCNC(=N)N)NC(=O)[C@@H](NC(=O)[C@@H](NC(=O)[C@H](CCCNC(=N)N)NC(=O)[C@@H](NC(=O)[C@@H](NC(=O)[C@H](CCCNC(=N)N)NC(=O)[C@H](CCCNC(=N)N)NC(=O)[C@H](Cc1c[nH]c2ccccc12)NC(=O)[C@@H](NC(=O)[C@H](CCCNC(=N)N)NC(=O)[C@H](CCCNC(=N)N)NC(=O)[C@@H](NC(=O)[C@H](CCCNC(=N)N)NC(=O)[C@H](CCCNC(=N)N)NC(=O)[C@@H](NC(=O)[C@H](Cc1c[nH]c2ccccc12)NC(=O)[C@H](CCCNC(=N)N)NC(=O)[C@@H](N)CCCNC(=N)N)C(C)C)C(C)C)C(C)C)C(C)C)C(C)C)C(C)C)C(C)C)C(=O)N[C@@H](CCCNC(=N)N)C(=O)N[C@@H](CCCNC(=N)N)C(N)=O [SEQ ID NO: 1] (H-RRWVRRVRRVWRRVVRVVRRWVRR-NH2), which AUC(0-inf) [1] is on record?
A: The AUC(0-inf) was 13500 ng·h/mL.

Q: And the AUC(0-t) [1]?
A: Its AUC(0-t) is 12200 ng·h/mL.

Q: What about the AUCextrap [1] of the same compound?
A: The AUCextrap was 12.8%.

Q: And the Cmax [1]?
A: The Cmax was 2310 ng/mL.

Q: And the t1/2 [1]?
A: The t1/2 was 21.1 h.

Q: What about the AUCextrap [2] of the same compound?
A: The AUCextrap was 8.22%.

Q: What about the CL/F [2] of the same compound?
A: Its CL/F is 1.07 mL/min/kg.

Q: What about the AUCextrap (Cohort 4, 0.5 mg/kg IV infusion 2 hours, Median) of the same compound?
A: Its AUCextrap is 8.81%.

Q: What about the AUC0-24 [3] of the same compound?
A: The AUC0-24 was 3190 ng·h/mL.

Q: What about the AUC(0-inf) [3] of the same compound?
A: The AUC(0-inf) was 3870 ng·h/mL.

Q: What about the AUC(0-t) [3] of the same compound?
A: The AUC(0-t) was 3440 ng·h/mL.

Q: And the AUCextrap [3]?
A: Its AUCextrap is 3.65%.

Q: What about the CL/F [3] of the same compound?
A: Its CL/F is 0.615 mL/min/kg.

Q: And the Cmax [3]?
A: The Cmax was 994 ng/mL.

Q: And the t1/2 [3]?
A: The t1/2 was 11.5 h.

Q: What about the “Plasma Concentration by Nominal Time from Start of Infusion, Mean” value (Cohort 4, 0.5 mg/kg IV, infusion 2 hours, 0.0 h, cohort mean N 6) of the same compound?
A: The value was 0.00 ng/mL.

Q: What about the “Plasma Concentration by Nominal Time from Start of Infusion” value (Cohort 4, 0.5 mg/kg IV, infusion 2 hours, 0.0 h, individual subjects) of the same compound?
A: Its value is 0.00 ng/mL.

Q: And the “Plasma Concentration by Nominal Time from Start of Infusion” value (Cohort 4, 0.5 mg/kg IV, infusion 2 hours, 4.0 h, individual subjects)?
A: The value was 457 ng/mL and 502 ng/mL and 614 ng/mL.

Q: And the “Plasma Concentration by Nominal Time from Start of Infusion” value (Cohort 4, 0.5 mg/kg IV, infusion 2 hours, 6.0 h, individual subjects)?
A: Its value is 249 ng/mL and 448 ng/mL and 472 ng/mL.

Q: And the “Plasma Concentration by Nominal Time from Start of Infusion” value (Cohort 4, 0.5 mg/kg IV, infusion 2 hours, 8.0 h, individual subjects)?
A: The value was 164 ng/mL and 311 ng/mL and 377 ng/mL.

Q: And the AUCextrap [4]?
A: Its AUCextrap is 7.38%.

Q: And the CL/F [4]?
A: Its CL/F is 0.977 mL/min/kg.

Q: And the Tlast [4]?
A: The Tlast was 46 h.

Q: And the λz [4]?
A: The λz was 0.0443 h⁻¹.

Q: And the AUCextrap [5]?
A: The AUCextrap was 8.22%.

Q: What about the CL/F [5] of the same compound?
A: Its CL/F is 1.07 mL/min/kg.

Q: What about the Tlast [5] of the same compound?
A: Its Tlast is 46 h.

Q: What about the λz [5] of the same compound?
A: The λz was 0.0457 h⁻¹.

Q: What about the AUCextrap [6] of the same compound?
A: The AUCextrap was 8.81%.

Q: And the CL/F [6]?
A: Its CL/F is 0.892 mL/min/kg.

Q: And the Tlast [6]?
A: The Tlast was 50 h.

Q: And the λz [6]?
A: The λz was 0.0461 h⁻¹.

Q: What about the Tlast (Cohort 4, 0.5 mg/kg IV, infusion 2 hours, individual subjects) of the same compound?
A: The Tlast was 38 h (2×) and 50 h (4×).

Q: What about the “Plasma Concentration by Nominal Time from Start of Infusion, Mean” value (Cohort 5, 1 mg/kg IV 4-hr infusion, 0.0 h, cohort mean) of the same compound?
A: Its value is 0.00 ng/mL.

Q: And the AUCextrap (Cohort 5, 1 mg/kg IV infusion 4 hours, Geometric Mean)?
A: Its AUCextrap is 8.61%.

Q: What about the AUC0-24 [7] of the same compound?
A: The AUC0-24 was 28800 ng·h/mL.

Q: What about the AUC(0-inf) [7] of the same compound?
A: The AUC(0-inf) was 25700 ng·h/mL.

Q: What about the AUC(0-t) [7] of the same compound?
A: Its AUC(0-t) is 34300 ng·h/mL.

Q: And the AUCextrap [7]?
A: Its AUCextrap is 17.8%.

Q: And the t1/2 [7]?
A: The t1/2 was 28.3 h.

Q: And the AUCextrap (Cohort 5, 1 mg/kg IV infusion 4 hours, Mean)?
A: The AUCextrap was 10.8%.

Q: What about the AUCextrap (Cohort 5, 1 mg/kg IV infusion 4 hours, Median) of the same compound?
A: The AUCextrap was 11.6%.

Q: What about the AUC0-24 [8] of the same compound?
A: Its AUC0-24 is 14000 ng·h/mL.

Q: What about the AUC(0-inf) [8] of the same compound?
A: Its AUC(0-inf) is 17400 ng·h/mL.

Q: And the AUC(0-t) [8]?
A: The AUC(0-t) was 15800 ng·h/mL.

Q: And the AUCextrap [8]?
A: Its AUCextrap is 2.43%.

Q: And the Cmax [8]?
A: The Cmax was 2030 ng/mL.

Q: And the t1/2 [8]?
A: Its t1/2 is 9.59 h.

Q: And the AUC(0-inf) (Cohort 5, 1 mg/kg IV infusion 4 hours, individual subject)?
A: The AUC(0-inf) was 17400 ng·h/mL and 19900 ng·h/mL and 25700 ng·h/mL.

Q: And the “actual dose-level exposure AUC0-24 relative to that predicted from animal data” value [9]?
A: Its value is 5-10 ×.

Q: What about the “actual dose-level exposure Cmax relative to that predicted from animal data” value [9] of the same compound?
A: The value was “about 4 ×”.

Q: And the “dose proportionality of AUC0-t” value (dose range 0.05 to 0.5 mg/kg, slope not significantly different from 1)?
A: Its value is “increased proportionally with dose increase”.

Q: What about the “intercept estimate, log AUC0-∞ versus log dose” value (dose range 0.05 to 1 mg/kg) of the same compound?
A: The value was 6.04.

Q: And the “slope estimate, log AUC0-∞ versus log dose” value (dose range 0.05 to 1 mg/kg, 90% CI=0.78 to 1.03)?
A: Its value is 0.91.

Q: And the “increase of AUC0-t” value [10]?
A: The value was 4.2 fold.

Q: And the “increase of mean AUC0-24” value [10]?
A: Its value is 3.6 fold.

Q: And the “increase of AUC0-t” value (over the […] increase in dose)?
A: Its value is 2.2 fold.

Q: And the “increase of mean AUC0-24” value (over the […] increase in dose)?
A: The value was 2.0 fold.

Q: And the AUCextrap [11]?
A: Its AUCextrap is 8.36%.

Q: And the Tlast [11]?
A: Its Tlast is 24 h.

Q: And the λz [11]?
A: The λz was 0.0946 h⁻¹.

Q: And the AUC0-24 [12]?
A: The AUC0-24 was 1610 ng·h/mL.

Q: And the AUC(0-inf) [12]?
A: The AUC(0-inf) was 1820 ng·h/mL.

Q: And the AUC(0-t) [12]?
A: The AUC(0-t) was 1720 ng·h/mL.

Q: And the AUCextrap [12]?
A: Its AUCextrap is 12.1%.

Q: What about the CL/F [12] of the same compound?
A: The CL/F was 0.595 mL/min/kg.

Q: What about the Cmax [12] of the same compound?
A: The Cmax was 341 ng/mL.

Q: What about the Tlast [12] of the same compound?
A: The Tlast was 37 h.

Q: What about the t1/2 [12] of the same compound?
A: The t1/2 was 8.59 h.

Q: What about the λz [12] of the same compound?
A: Its λz is 0.105 h⁻¹.

Q: What about the AUCextrap [13] of the same compound?
A: The AUCextrap was 8.87%.

Q: And the Tlast [13]?
A: Its Tlast is 25 h.

Q: And the λz [13]?
A: Its λz is 0.095 h⁻¹.

Q: What about the AUCextrap [14] of the same compound?
A: Its AUCextrap is 8.12%.

Q: And the Tlast [14]?
A: The Tlast was 25 h.

Q: And the λz [14]?
A: Its λz is 0.0951 h⁻¹.

Q: What about the AUC0-24 [15] of the same compound?
A: Its AUC0-24 is 619 ng·h/mL.

Q: And the AUC(0-t) [15]?
A: Its AUC(0-t) is 515 ng·h/mL.

Q: What about the AUCextrap [15] of the same compound?
A: The AUCextrap was 4.54%.

Q: And the CL/F [15]?
A: The CL/F was 0.457 mL/min/kg.

Q: What about the Cmax [15] of the same compound?
A: The Cmax was 170 ng/mL.

Q: And the Tlast [15]?
A: The Tlast was 13 h.

Q: What about the t1/2 [15] of the same compound?
A: The t1/2 was 6.62 h.

Q: And the λz [15]?
A: The λz was 0.0807 h⁻¹.

Q: And the AUC(0-inf) [16]?
A: Its AUC(0-inf) is 1490 ng·h/mL and 1800 ng·h/mL and 1820 ng·h/mL.

Q: And the CL/F [16]?
A: The CL/F was 0.562 mL/min/kg and 0.463 mL/min/kg and 0.457 mL/min/kg.

Q: What about the Tlast [16] of the same compound?
A: Its Tlast is 25 h (4×) and 13 h and 37 h.
